Target: T1, hFASN enzyme (full length) (Homo sapiens, UniProt P49327)
T1 construct: 10 μL hFASN enzyme (full length, 300 ng, purified in house); made in house
Assay: Fatty Acid Synthase (FASN) inhibition scintillation proximity assay
Format: biochemical
Settings: for inhibition at 10 µM: read-out: Human FASN % inhibition @ 10 μM, 10 μM test compound; for IC50: read-out: Human FASN pIC50 (converted)
Method in brief: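 Compounds at 0.01–30 μM were mixed with 300 ng purified full-length enzyme in 100 mM KH2PO4 pH 7.5, 1 mM DTT. Substrates ³H-acetyl-CoA and malonyl-CoA were then converted, and bead addition stopped the reaction. Signal was normalised to low and high plate controls and fitted by 4-parameter nonlinear regression.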

T1 sequence (P49327 whole entry): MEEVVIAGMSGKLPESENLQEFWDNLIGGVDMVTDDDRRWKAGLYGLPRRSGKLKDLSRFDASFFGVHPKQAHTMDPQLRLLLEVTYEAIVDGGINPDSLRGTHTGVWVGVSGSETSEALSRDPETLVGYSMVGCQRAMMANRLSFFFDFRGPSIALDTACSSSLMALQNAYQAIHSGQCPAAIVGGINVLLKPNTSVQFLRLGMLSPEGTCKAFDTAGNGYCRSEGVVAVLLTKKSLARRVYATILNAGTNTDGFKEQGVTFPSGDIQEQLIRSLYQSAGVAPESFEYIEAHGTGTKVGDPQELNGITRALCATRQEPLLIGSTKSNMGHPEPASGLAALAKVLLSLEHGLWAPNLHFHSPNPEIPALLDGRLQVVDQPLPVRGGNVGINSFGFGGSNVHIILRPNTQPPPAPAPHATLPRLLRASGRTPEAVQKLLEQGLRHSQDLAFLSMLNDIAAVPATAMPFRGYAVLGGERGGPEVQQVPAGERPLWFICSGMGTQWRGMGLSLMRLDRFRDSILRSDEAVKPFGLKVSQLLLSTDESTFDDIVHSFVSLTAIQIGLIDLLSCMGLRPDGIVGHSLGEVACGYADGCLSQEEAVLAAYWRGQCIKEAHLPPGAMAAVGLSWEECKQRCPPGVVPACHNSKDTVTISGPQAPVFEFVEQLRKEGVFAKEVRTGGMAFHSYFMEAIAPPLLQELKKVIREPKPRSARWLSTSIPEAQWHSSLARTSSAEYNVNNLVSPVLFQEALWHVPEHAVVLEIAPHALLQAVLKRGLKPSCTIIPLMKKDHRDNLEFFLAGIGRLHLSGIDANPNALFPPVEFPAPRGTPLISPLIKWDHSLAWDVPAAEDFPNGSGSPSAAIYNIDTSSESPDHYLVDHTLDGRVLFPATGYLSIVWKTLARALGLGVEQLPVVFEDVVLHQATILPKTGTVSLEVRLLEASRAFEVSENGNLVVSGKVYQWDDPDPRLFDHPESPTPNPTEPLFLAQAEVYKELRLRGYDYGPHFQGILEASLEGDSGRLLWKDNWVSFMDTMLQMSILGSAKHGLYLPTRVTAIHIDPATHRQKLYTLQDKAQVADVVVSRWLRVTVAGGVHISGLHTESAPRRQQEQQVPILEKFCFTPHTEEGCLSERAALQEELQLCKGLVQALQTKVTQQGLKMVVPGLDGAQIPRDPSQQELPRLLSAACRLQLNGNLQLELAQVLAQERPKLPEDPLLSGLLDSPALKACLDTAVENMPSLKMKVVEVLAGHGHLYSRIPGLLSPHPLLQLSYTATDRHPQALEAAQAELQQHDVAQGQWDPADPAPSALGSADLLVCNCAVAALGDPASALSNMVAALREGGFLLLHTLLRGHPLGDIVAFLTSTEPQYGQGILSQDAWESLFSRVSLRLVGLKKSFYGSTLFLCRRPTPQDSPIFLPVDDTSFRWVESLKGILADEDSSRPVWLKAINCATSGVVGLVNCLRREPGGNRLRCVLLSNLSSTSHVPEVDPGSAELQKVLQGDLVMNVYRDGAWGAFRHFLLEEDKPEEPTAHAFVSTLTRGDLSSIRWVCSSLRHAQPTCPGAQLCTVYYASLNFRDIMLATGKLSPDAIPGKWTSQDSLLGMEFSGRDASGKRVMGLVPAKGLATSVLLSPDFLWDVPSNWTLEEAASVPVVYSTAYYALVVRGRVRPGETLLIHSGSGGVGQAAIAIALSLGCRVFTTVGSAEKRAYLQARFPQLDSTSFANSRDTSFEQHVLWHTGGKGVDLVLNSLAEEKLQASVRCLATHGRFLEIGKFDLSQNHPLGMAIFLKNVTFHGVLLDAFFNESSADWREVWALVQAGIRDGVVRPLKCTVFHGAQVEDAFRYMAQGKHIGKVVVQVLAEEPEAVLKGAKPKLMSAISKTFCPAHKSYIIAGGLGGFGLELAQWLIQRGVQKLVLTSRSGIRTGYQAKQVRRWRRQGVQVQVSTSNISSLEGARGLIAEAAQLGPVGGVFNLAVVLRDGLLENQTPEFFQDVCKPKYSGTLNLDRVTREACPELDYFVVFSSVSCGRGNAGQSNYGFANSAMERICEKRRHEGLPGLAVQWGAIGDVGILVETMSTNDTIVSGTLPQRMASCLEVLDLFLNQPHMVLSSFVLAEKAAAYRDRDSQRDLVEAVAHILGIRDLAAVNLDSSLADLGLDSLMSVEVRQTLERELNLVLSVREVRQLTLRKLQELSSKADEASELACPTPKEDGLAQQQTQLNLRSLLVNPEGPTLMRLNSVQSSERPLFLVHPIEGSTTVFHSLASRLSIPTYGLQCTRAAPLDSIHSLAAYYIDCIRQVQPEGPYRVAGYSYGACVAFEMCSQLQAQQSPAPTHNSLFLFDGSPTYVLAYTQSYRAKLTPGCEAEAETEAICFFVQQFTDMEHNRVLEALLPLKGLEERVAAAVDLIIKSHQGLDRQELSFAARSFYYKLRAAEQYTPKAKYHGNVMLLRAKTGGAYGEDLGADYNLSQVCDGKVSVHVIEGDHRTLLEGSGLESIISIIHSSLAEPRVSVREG

| SMILES | inhibition at 10 µM [%] | IC50 [µM] |
| --- | --- | --- |
| CC(O)C(=O)N1CC(CN2C(=O)C3(CCOC3)N=C2c2ccc(-c3ccc4occc4c3)cc2)C1 (stereo not drawn) [compound 719, 2-[4-(1-Benzofuran-5-yl)phenyl]-3-{[1-(2-hydroxypropanoyl)azetidin-3-yl]methyl}-7-oxa-1,3-diazaspiro[4.4]non-1-en-4-one] | 67 | 3.89 |
| O=C(N1CCCC1)N1CC(CN2C(=O)C3(CCOC3)N=C2c2ccc(-c3ccc4occc4c3)cc2)C1 (stereo not drawn) [compound 721, 2-[4-(1-Benzofuran-5-yl)phenyl]-3-{[1-(pyrrolidin-1-ylcarbonyl)azetidin-3-yl]methyl}-7-oxa-1,3-diazaspiro[4.4]non-1-en-4-one] | 63 | 5.75 |
| Cn1ncc2cc(-c3ccc(C4=NC5(CCOC5)C(=O)N4CC4CN(C(=O)C5CC5)C4)cc3)ccc21 (stereo not drawn) [compound 722, 3-{[1-(Cyclopropylcarbonyl)azetidin-3-yl]methyl}-2-[4-(1-methyl-1H-indazol-5-yl)phenyl]-7-oxa-1,3-diazaspiro[4.4]non-1-en-4-one] | 56 | 6.61 |
| CC(O)C(=O)N1CC(CN2C(=O)C3(CCOC3)N=C2c2ccc(-c3ccc4c(cnn4C)c3)cc2)C1 (stereo not drawn) [compound 723, 3-{[1-(2-Hydroxypropanoyl)azetidin-3-yl]methyl}-2-[4-(1-methyl-1H-indazol-5-yl)phenyl]-7-oxa-1,3-diazaspiro[4.4]non-1-en-4-one] | 55 | 7.94 |
| Cn1ncc2cc(-c3ccc(C4=NC5(CCOC5)C(=O)N4CC4CN(C(=O)[C@H]5CCCO5)C4)cc3)ccc21 (stereo partly drawn) [compound 724, 2-[4-(1-Methyl-1H-indazol-5-yl)phenyl]-3-({1-[(2R)-tetrahydro-furan-2-ylcarbonyl]azetidin-3-yl}methyl)-7-oxa-1,3-diazaspiro[4.4]non-1-en-4-one] | 47 | 4.17 |
| COC(=O)N1CC2(C1)N=C(c1ccc(-c3ccc(-c4cnn(C)c4)cc3)cc1)N(C[C@@H]1CCN(C(=O)C(C)O)C1)C2=O (stereo partly drawn) [compound 726, Methyl 7-{[(3R)-1-(2-hydroxypropanoyl)pyrrolidin-3-yl]methyl}-6-[4′-(1-methyl-1H-pyrazol-4-yl)biphenyl-4-yl]-8-oxo-2,5,7-triazaspiro[3.4]oct-5-ene-2-carboxylate] | 73 | 1.95 |
| COC(=O)N1CC2(C1)N=C(c1ccc(-c3ccc4cccnc4c3)cc1)N(C[C@@H]1CCN(C(=O)C(F)(F)F)C1)C2=O [compound 731, Methyl 8-oxo-6-(4-quinolin-7-ylphenyl)-7-{[(3R)-1-(trifluoroacetyl)pyrrolidin-3-yl]methyl}-2,5,7-triazaspiro[3.4]oct-5-ene-2-carboxylate] | 63 | 3.8 |
| COC(=O)N1CC2(C1)N=C(c1ccc(-c3ccc4cccnc4c3)cc1)N(C[C@@H]1CCN(C(=O)N3CCCC3)C1)C2=O [compound 732, Methyl 8-oxo-7-{[(3S)-1-(pyrrolidin-1-ylcarbonyl)pyrrolidin-3-yl]methyl}-6-(4-quinolin-7-ylphenyl)-2,5,7-triazaspiro[3.4]oct-5-ene-2-carboxylate] | 88 | ~1.2 |
| COC(=O)N1CC2(C1)N=C(c1ccc(-c3ccc4occc4c3)cc1)N(C[C@@H]1CCN(C(=O)C(C)O)C1)C2=O (stereo partly drawn) [compound 734, Methyl 6-[4-(1-benzofuran-5-yl)phenyl]-7-{[(3R)-1-(2-hydroxypropanoyl)pyrrolidin-3-yl]methyl}-8-oxo-2,5,7-triazaspiro[3.4]oct-5-ene-2-carboxylate] | 84 | 1.7 |
| COC(=O)N1CC2(C1)N=C(c1ccc(-c3ccc4c(cnn4C)c3)cc1)N(C[C@@H]1CCN(C(=O)C(C)O)C1)C2=O (stereo partly drawn) [compound 738, Methyl 7-{[(3R)-1-(2-hydroxypropanoyl)pyrrolidin-3-yl]methyl}-6-[4-(1-methyl-1H-indazol-5-yl)phenyl]-8-oxo-2,5,7-triazaspiro[3.4]oct-5-ene-2-carboxylate] | 80 | 1.91 |
| COC(=O)N1CC2(C1)N=C(c1ccc(-c3ccc4c(cnn4C)c3)cc1)N(C[C@@H]1CCN(C(=O)N3CCCC3)C1)C2=O [compound 740, Methyl 6-[4-(1-methyl-1H-indazol-5-yl)phenyl]-8-oxo-7-{[(3S)-1-(pyrrolidin-1-ylcarbonyl)pyrrolidin-3-yl]methyl}-2,5,7-triazaspiro[3.4]oct-5-ene-2-carboxylate] | 46 | 8.91 |
| CC(C)C(=O)N1CCC2(CC1)N=C(c1ccc(-c3ccc4[nH]ncc4c3)cc1)N(CC1CN(C(=O)C3CC3)C1)C2=O [compound 754, 3-{[1-(Cyclopropylcarbonyl)azetidin-3-yl]methyl}-2-[4-(1H-indazol-5-yl)phenyl]-8-(2-methylpropanoyl)-1,3,8-triazaspiro[4.5]dec-1-en-4-one] | 67 | 2.95 |
| COCCN1CCC2(CC1)N=C(c1ccc(-c3ccc4[nH]ncc4c3)cc1)N(CC1CN(C(=O)C3CC3)C1)C2=O [compound 756] | 82 | 1.58 |
| O=C(C1CC1)N1CC(CN2C(=O)C3(CCN(CCO)CC3)N=C2c2ccc(-c3ccc4[nH]ncc4c3)cc2)C1 [compound 758, 3-{[1-(Cyclopropylcarbonyl)azetidin-3-yl]methyl}-8-(2-hydroxyethyl)-2-[4-(1H-indazol-5-yl)phenyl]-1,3,8-triazaspiro[4.5]dec-1-en-4-one] | 71 | 3.39 |
| Cn1cc(-c2ccc(-c3ccc(C4=NC5(CCNCC5)C(=O)N4CC4CN(C(=O)C5CC5)C4)cc3)cc2)cn1 [compound 759, 3-{[1-(Cyclopropylcarbonyl)azetidin-3-yl]methyl}-2-[4′-(1-methyl-1H-pyrazol-4-yl)biphenyl-4-yl]-1,3,8-triazaspiro[4.5]dec-1-en-4-one] | 38 | 9.12 |
| CS(=O)(=O)N1CCC2(CC1)N=C(c1ccc(-c3ccc4occc4c3)cc1)N(CC1CN(C(=O)C3CC3)C1)C2=O [compound 760, 2-[4-(1-Benzofuran-5-yl)phenyl]-3-{[1-(cyclopropylcarbonyl)azetidin-3-yl]methyl}-8-(methylsulfonyl)-1,3,8-triazaspiro[4.5]dec-1-en-4-one] | 62 | 4.79 |
| Cn1ncc2cc(-c3ccc(C4=NC5(CCN(S(C)(=O)=O)CC5)C(=O)N4CC4CN(C(=O)C5CC5)C4)cc3)ccc21 [compound 761, 3-{[1-(Cyclopropylcarbonyl)azetidin-3-yl]methyl}-2-[4-(1-methyl-1H-indazol-5-yl)phenyl]-8-(methylsulfonyl)-1,3,8-triazaspiro[4.5]dec-1-en-4-one] | 45 | ~7.59 |
| CS(=O)(=O)N1CCC2(CC1)N=C(c1ccc(-c3ccc4[nH]ncc4c3)cc1)N(CC1CN(C(=O)C3CC3)C1)C2=O [compound 763, 3-{[1-(Cyclopropylcarbonyl)azetidin-3-yl]methyl}-2-[4-(1H-indazol-5-yl)phenyl]-8-(methylsulfonyl)-1,3,8-triazaspiro[4.5]dec-1-en-4-one] | 63 | ~5.37 |
| O=C(C1CC1)N1CC(CN2C(=O)C3(CCN(C(=O)C(F)(F)F)CC3)N=C2c2ccc(-c3ccc4occc4c3)cc2)C1 [compound 764, 2-[4-(1-Benzofuran-5-yl)phenyl]-3-{[1-(cycloprropylcarbonyl)azetidin-3-yl]methyl}-8-(trifluoroacetyl)-1,3,8-triazaspiro[4.5]dec-1-en-4-one] | 63 | ~4.37 |
| O=C(C1CC1)N1CC(CN2C(=O)C3(CCN(C(=O)C(F)(F)F)CC3)N=C2c2ccc(-c3ccc4[nH]ncc4c3)cc2)C1 [compound 766, 3-{[1-(Cyclopropylcarbonyl)azetidin-3-yl]methyl}-2-[4-(1H-indazol-5-yl)phenyl]-8-(trifluoroacetyl)-1,3,8-triazaspiro[4.5]dec-1-en-4-one] | 67 | ~4.47 |
| CC(C)C(=O)N1CCC2(CC1)N=C(c1ccc(-c3ccc(-c4cnn(C)c4)cc3)cc1)N(CC1CN(C(=O)C3CC3)C1)C2=O [compound 767, 3-{[1-(Cycloprropylcarbonyl)azetidin-3-yl]methyl}-8-(2-methylpropanoyl)-2-[4′-(1-methyl-1H-pyrazol-4-yl)biphenyl-4-yl]-1,3,8-triazaspiro[4.5]dec-1-en-4-one] | 76 | 1.91 |
| CN(C)CC(=O)N1CCC2(CC1)N=C(c1ccc(-c3ccc(-c4cnn(C)c4)cc3)cc1)N(CC1CN(C(=O)C3CC3)C1)C2=O [compound 768, 3-{[1-(Cyclopropylcarbonyl)azetidin-3-yl]methyl}-8-(N,N-dimethylglycyl)-2-[4′-(1-methyl-1H-pyrazol-4-yl)biphenyl-4-yl]-1,3,8-triazaspiro[4.5]dec-1-en-4-one] | 79 | 1.45 |
| Cn1cc(-c2ccc(-c3ccc(C4=NC5(CCN(S(C)(=O)=O)CC5)C(=O)N4CC4CN(C(=O)C5CC5)C4)cc3)cc2)cn1 [compound 769, 3-{[1-(Cyclopropylcarbonyl)azetidin-3-yl]methyl}-2-[4′-(1-methyl-1H-pyrazol-4-yl)biphenyl-4-yl]-8-(methylsulfonyl)-1,3,8-triazaspiro[4.5]dec-1-en-4-one] | 60 | 5.01 |
| Cn1cc(-c2ccc(-c3ccc(C4=NC5(CCN(C(=O)C6CC6)CC5)C(=O)N4CC4CN(C(=O)C5CC5)C4)cc3)cc2)cn1 [compound 770, 8-(Cyclopropylcarbonyl)-3-{[1-(cyclopropylcarbonyl)azetidin-3-yl]methyl}-2-[4′-(1-methyl-1H-pyrazol-4-yl)biphenyl-4-yl]-1,3,8-triazaspiro[4.5]dec-1-en-4-one] | 77 | 2.19 |
